From US20140161767A1, “FOLLICLE-STIMULATING HORMONE (FSH)/LYTIC DOMAIN FUSION CONSTRUCTS AND METHODS OF MAKING AND USING SAME” (BOARD OF SUPERVISORS OF LOUISIANA STATE UNIVERSITY AND …, priority 2012, published 2014) come the findings set out here.

In one assay the test system is MDA-MB-231. Briefly: Cell viability after 4 hours (Cell Titer Glo), MDA-MB-231. The format is cell-based, human. The note with it: 4 h incubation; read-out: Activities [μM] MDA-MB-231 (p47). As to the method: Human ovarian cancer cell lines OVCAR-3 (p 41), SKOV-3 (p 35) and the human uterine sarcoma cell line MES-SA-Dx5 (p 61) (multi-drug resistant clone), the human pancreatic cancer cell line Panc-1 (passage number 18), and human triple negative breast cancer cell line MDA-MB-231 (passage number 47) were grown in ATCC recommended medium, 10% fetal bovine serum, 100 IU/ml penicillin, 100 microg/ml streptomycin. Cells were typically seeded (2,000 cells per well) into 96 well plates and media was replaced after 48 hours of incubation. […] Each Phor-18-hFSH-β81-89 conjugate provided in lyophilized form was dissolved in saline and added to cells. The duration of incubation was 4 hours at 37° C. Cell viability was assessed after 4 hours using a luminometric assays (Promega, Cell Titer Glo, G755B, lot #00000031421). Controls contained saline or 0.1% triton as reference for 0 and 100% cell death, respectively.
Data were processed and analyzed using GraphPad Prism version 5.00 for Windows, GraphPad Software, San Diego Calif. USA, www.graphpad.com”. Statistical analysis for significance was determined by a two-tailed Student's T-test. Each study was conducted to achieve an N of at least 6.
In vitro activities were expressed as IC50 values for each cell line, time point and compound tested that were calculated using the Hill equation (Graph Pad Prizm software).

Assay [1] relates to MDA-MB-435S.luc xenograft. As to the kind of experiment: Mouse xenograft model of breast cancer, βCG fusion constructs. The format is in vivo, mice. The note with it: weekly bolus injections, days 13, 19, 25. How it is done: This example describes in vivo studies in a mouse xenograft model of breast cancer with various types and doses of βCG- and LHRH-fusion constructs.
Female Nu/Nu mice were injected subcutaneously with a MDA-MB-435S.luc/Matrigel HC suspension (1×10^6 cells). In brief, treatment started on day 13 after tumor cell injection and continued on day 19 and 25. […] The doses for weekly injections were 5, 1 and 0.01 mg/kg body weight, given as a bolus single injection.
The effect of cytolytic peptide injections on the primary tumors is illustrated in FIG. 8. In brief, the FIGS. 8A-8C show tumor volume during the course of the study for each individual peptide. FIGS. 8D-8G show tumor characteristics at necropsy: tumor volume (D), tumor weight (E), live tumor cells (F), tumor conditions (G).
Treatment efficacy was calculated as difference between measurements at the beginning of treatment compared to the measurement at the end of study (FIG. 8H-8I). […] Viability of cells in the tumors was determined at the end of the study when tumors were measured for luciferase activity.

A further assay has as its system MDA-MB-435S xenograft. Briefly: MDA-MB-435S xenograft, kinetics of tumor destruction after a single injection. The format is in vivo, mice. The note with it: single i.v. injection, 0.2 and 2 mg/kg. How it is done:
In brief, Nu/Nu female mice, outbred strain, age 5 weeks (Charles River), were injected (s.c.) into the interscapular region with a MDA-MB-435S (passage #249)/Matrigel suspension (2.4×10^6 cells/mouse) as described in Example 10. […] The doses were given as a single bolus intravenous injection via lateral tail vein.
Mice were sacrificed 1, 2 and 16 hours after treatment with Phor 18-LHRH (338613) or saline. At study endpoint body weight, tumor weights were determined and tumors were fixed in phosphate buffered 10% formalin.

In a further assay the test system is MDA-MB-435. Briefly: Fluorescence microscopy, mechanism of action in MDA-MB-435 cells. The format is cell-based, human. Particulars: 10 μM, 5 minutes exposure. As to the method: In brief, human breast cancer cells (MDA-MB-435, passage #252) were seeded onto culture dishes. The following markers were introduced prior to adding EP100: DRAQ5™ (Alexis Corporation)—blue—was used for staining of the nucleus and MnoTracker® Red CMXRos (M7512) (Molecular Probes, Inc. OR) were applied for visualizing intact mitochondria. Cell membranes were stained with wheat germ alexa fluor green conjugates (Molecular Probes, Inc. OR).
Cells were loaded first with Mitotracker dye, according to the manufacturers recommendation. […] Culture dishes with saline only served as controls. The supernatant was removed and the remaining cells prepared for fluorescence microscopy imaging.

In the next assay the test system is NIH:3T3. The format is cell-based, mouse. Particulars: non cancerous cell line 3T3. The text has this:
(§1) Membranes of non-cancerous cell lines are neutral and are resistant to cytolytic peptides, in contrast to cancer cell lines, which have a high phosphatidic acid content in their outer membrane.
(§2) The breast cancer cell lines studied were MDA-MB-4355 (estrogen receptor alpha negative), MCF-7 and T47D (estrogen receptor alpha positive), ovarian cancer cell lines (OVCAR-3 and SKOV-3), prostate cancer (LNCaP), the non-malignant breast epithelial cell line MCF-10A and the mouse fibroblast cell line NIH:3T3.
(§3) Cells were seeded into 96 well plates at a densitiy of 10,000 cells/well. […] Controls contained USP saline or 0.1% TritonX-100™ as reference for 0 and 100% cell death, respectively. […] Cell viability was assessed through formazan conversion assay (MTT assay, (CellTiter 96 Aqueous One, Promega # G3582). Formazan conversion was determined using a BioRad Benchmark Plus microplate spectrophotometer dual wavelengths at 490/630 nm at room temperature).
(§4) Data were calculated as fraction of absorption in TritonX-100™ containing wells representing 100% cell death versus 0% cell death in saline containing wells. Cytotoxicity was determined as IC50 using GraphPad Prism version 5.01 for Windows, GraphPad Software, San Diego Calif. […] 4 wells of each individual set of two 96 well plates were compared and analyzed. Statistical analysis for significance was determined by a two-tailed Student's T-test.

In another assay the test system is MCF-7 xenograft. Briefly: MCF-7 breast cancer xenograft. The format is in vivo, mice. The note with it: MCF-7, 2 × 3 wk, 19 d. How it is done: In vivo efficacy studies were conducted as monotherapy, or a combination therapy with standard of care treatments in nude mice bearing human breast cancer xenografts: MDA-MB-435S.luc (s.c.), MCF-7 (estrogen receptor alpha positive), human ovarian cancer xenografts: OVCAR-3, (s.c.), human prostate cancer xenografts: PC-3 (androgen receptor negative).
Mice were sacrificed one week after the last injection and blood collected for chemistry panel, tumor weights and body weights were recorded. Part of the tumors were fixed in PBS buffered 10% formalin for histological evaluation.

Another assay relates to SKOV-3 cells. The format is cell-based, human. Particulars: SKOV-3, 24 hours incubation; read-out: IC50 (maximal efficacy).
Excerpt: as §1, §2, §3, §4

In another assay the test system is OVCAR-3 cells. The format is cell-based, human. The note with it: OVCAR-3 (p47), values listed with increasing incubation time, times not stated.
Excerpt: as §1, §2, §3, §4

On to KFAKFAK KFAKFAK KFAK [Phor18], for which, in the assay on MDA-MB-231, the IC50 amounted to 18.9 ± 0.8 µM. Besides, the “Tumor volume compared to saline controls” value in assay [1] is given as “ineffective”.
In the case of “KFAKFAKKFAKFAKKFAKQHWSYGLRPG [Phor18-LHRH]”, in the assay on MDA-MB-435S xenograft, the “Time after injection to destruction of tumors” value is 1 h. Further, the “Plasma membrane (fluorescence microscopy)” value with MDA-MB-435 is given as “disintegration of the plasma membrane”. Moreover, the results for the IC50 in the assay with NIH:3T3, in the assay on SKOV-3 cells and with OVCAR-3 cells were over 10 µM, 11.5 µM and 500 nM, respectively. Besides, the “Median Tumor Weight vs Saline P < 0.05 (dose, growth delay)” value in the assay on MCF-7 xenograft was 0.02 mg/kg growth.
